The Kinase Knowledgebase extract (Sharma et al. 2016)

What follows are compounds tested against MAPK14 (human) (UniProt Q16539) (assay: Inhibition of MAPK14 Kinase Activity).
MAPK14 (human), sequence (Q16539 whole entry, looked up): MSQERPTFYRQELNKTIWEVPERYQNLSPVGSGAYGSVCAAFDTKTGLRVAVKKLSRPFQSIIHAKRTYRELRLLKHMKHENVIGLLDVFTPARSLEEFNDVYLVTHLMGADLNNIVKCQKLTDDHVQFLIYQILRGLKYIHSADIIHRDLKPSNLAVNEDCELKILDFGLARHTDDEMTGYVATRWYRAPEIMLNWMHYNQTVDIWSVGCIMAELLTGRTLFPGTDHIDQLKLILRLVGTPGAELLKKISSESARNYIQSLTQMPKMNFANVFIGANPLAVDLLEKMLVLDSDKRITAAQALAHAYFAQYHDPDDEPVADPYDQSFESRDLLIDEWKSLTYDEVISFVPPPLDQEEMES

IC50, ≤ 1000 nM:
CC(C)NC(=O)c1csc(-c2oc(CN3CCN(C(=O)c4ccc(O)cc4O)CC3)nc2-c2ccc(F)cc2)n1
Cc1nc(-c2ccc(F)cc2)c(-c2nc(C(=O)NCc3cc(F)cc(F)c3)cs2)s1
CCNC(=O)c1csc(-c2c(-c3ccc(F)cc3)n[nH]c2C)n1
CCC(CO)NC(=O)c1csc(-c2c(-c3ccc(F)cc3)n[nH]c2C2CCNCC2)n1 (centres undefined)
CC(C)NC(=O)c1csc(-c2c(-c3ccc(F)cc3)noc2CNC(=O)c2ccncc2Cl)n1
CC(C)NC(=O)c1csc(-c2c(-c3ccc(F)cc3)n[nH]c2C2CCN(C(=O)C=O)CC2)n1
CCN(CC)c1ccc(C(=O)NCc2nc(-c3ccc(F)cc3)c(-c3nc(C(=O)NC(C)C)cs3)o2)cc1
CC(C)NC(=O)c1csc(-c2oc(CN3CCN(C(=O)c4cn(C)cn4)CC3)nc2-c2ccc(F)cc2)n1
CCOC(=O)CC(=O)N1CCN(Cc2nc(-c3ccc(F)cc3)c(-c3nc(C(=O)NC(C)C)cs3)o2)CC1
CC(C)NC(=O)c1csc(-c2oc(CNC(=O)Cc3c(F)cccc3F)nc2-c2ccc(F)cc2)n1
Cc1onc(-c2ccc(F)cc2)c1-c1nc(C(=O)NC(C)C)cs1
CC(C)NC(=O)c1csc(-c2c(-c3ccc(F)cc3)n[nH]c2C2CCN(C(=O)c3ccncc3Cl)CC2)n1
C#CCNC(=O)c1csc(-c2sc(C)nc2-c2ccc(F)cc2)n1
CC(C)NC(=O)c1csc(-c2oc(CN3CCN(C(=O)C=Cc4ccccc4O)CC3)nc2-c2ccc(F)cc2)n1
